Source: patent publication US20070128217A1 (priority 2003, published 2007)

Experiments:
[1] = tested on: rabbit serum obtained by immunizing a rabbit with the SARS-CoV strain Frankfurt 1; type: binding; parameters: Binding of a rabbit serum to linear peptides / Binding of a rabbit serum to looped peptides / Rabbit serum linear peptides / Rabbit serum looped peptides / Binding of a rabbit serum to linear peptides of protein N of SARS-CoV Urbani (Rabbit serum linear peptides) / Binding of a rabbit serum to looped/cyclic peptides of protein N of SARS-CoV Urbani (Rabbit serum looped peptides): unit not given here
[2] = tested on: antibodies in sera from SARS patients (sera 1a, 1b, 2, 6, 37, 62, London, SARS-yellow, SARS-green); type: binding, human; parameters: Binding of serum 6 to linear peptides of protein X1 of SARS-CoV Urbani / Binding of serum 37 to linear peptides of protein X1 of SARS-CoV Urbani / Binding of serum 6 to looped/cyclic peptide (PEPSCAN-ELISA) / Binding of serum 37 to looped/cyclic peptide (PEPSCAN-ELISA) / Binding of serum 37 to looped/cyclic peptides of protein X1 of SARS-CoV Urbani / Binding of serum 6 to linear peptides of protein X2 / Binding of serum 37 to linear peptides of protein X2 / Binding of serum 37 to looped/cyclic peptides of protein X2 of SARS-CoV Urbani / Binding of serum 6 to linear peptides of protein M of SARS-CoV Urbani / Binding of serum 37 to linear peptides of protein M of SARS-CoV Urbani / Binding of serum 6 to looped/cyclic peptides of protein M of SARS-CoV Urbani / Binding of serum 37 to looped/cyclic peptides of protein M of SARS-CoV Urbani / Binding of serum 6 to linear peptides of protein X3 of SARS-CoV Urbani / Binding of serum 37 to linear peptides of protein X3 of SARS-CoV Urbani / Binding of serum 37 to looped/cyclic peptides of protein X3 of SARS-CoV Urbani / Binding of serum 6 to linear peptides of protein X4 of SARS-CoV Urbani / Binding of serum 37 to linear peptides of protein X4 of SARS-CoV Urbani / Binding of serum 37 to looped/cyclic peptides of protein X4 of SARS-CoV Urbani / Binding of serum 6 to linear peptides of protein X5 of SARS-CoV Urbani / Binding of serum 37 to linear peptides of protein X5 of SARS-CoV Urbani / Binding of serum 37 to looped/cyclic peptides of protein X5 of SARS-CoV Urbani / Binding of serum 6 to linear peptides of protein N of SARS-CoV Urbani / Binding of serum 37 to linear peptides of protein N of SARS-CoV Urbani / Binding of serum 6 to linear peptide (PEPSCAN-ELISA) / Binding of serum 1a to looped/cyclic peptides of protein N of SARS-CoV Urbani / Binding of serum 1b to looped/cyclic peptides of protein N of SARS-CoV Urbani / Binding of serum 2 to looped/cyclic peptides of protein N of SARS-CoV Urbani / Binding of serum 6 to looped/cyclic peptides of protein N of SARS-CoV Urbani / Binding of serum 37 to looped/cyclic peptides of protein N of SARS-CoV Urbani / Binding of serum 62 to looped/cyclic peptides of protein N of SARS-CoV Urbani / Binding of serum London to looped/cyclic peptides of protein N of SARS-CoV Urbani / Binding of serum SARS-green to looped/cyclic peptides of protein N of SARS-CoV Urbani: unit not given here
[3] = tested on: control sera (pooled serum of ten healthy LUMC hospital workers; commercial negative donor pooled serum from the Dutch bloodbank); type: binding, human; parameters: Binding of Control serum LUMC to linear peptides / Binding of Control serum Blood-bank to linear peptides / Binding of Control serum LUMC to looped peptides / Binding of Control Serum Blood-Bank to Looped peptides / Binding of Control serum LUMC to linear peptides of the protein M of SARS-CoV Urbani / Binding of Control serum Blood-bank to linear peptides of the protein M of SARS-CoV Urbani / Binding of Control serum LUMC to looped peptides of the protein M of SARS-CoV Urbani / Binding of Control Serum Blood-Bank to Looped peptides of the protein M of SARS-CoV Urbani: unit not given here

Sequence: QASLPFGWLVIGVAF
- Binding of a rabbit serum to linear peptides [1]: 0.3
- Binding of a rabbit serum to looped peptides [1]: 0.4
- Binding of serum 1a to linear peptides of protein X1 of SARS-CoV Urbani [2]: 0.7
- Binding of serum 1a to looped/cyclic peptide (PEPSCAN-ELISA) [2]: 0.4
- Binding of serum 1b to linear peptides of protein X1 of SARS-CoV Urbani [2]: 0.6
- Binding of serum 1b to looped/cyclic peptide (PEPSCAN-ELISA) [2]: 0.3
- Binding of serum 2 to linear peptides of protein X1 of SARS-CoV Urbani [2]: 0.6
- Binding of serum 2 to looped/cyclic peptide (PEPSCAN-ELISA) [2]: 0.2
- Binding of serum 6 to linear peptides of protein X1 of SARS-CoV Urbani [2]: 0.4
- Binding of serum 6 to looped/cyclic peptide (PEPSCAN-ELISA) [2]: 0.3
- Binding of serum 37 to linear peptides of protein X1 of SARS-CoV Urbani [2]: 0.6
- Binding of serum 37 to looped/cyclic peptide (PEPSCAN-ELISA) [2]: 0.4
- Binding of serum 62 to linear peptides of protein X1 of SARS-CoV Urbani [2]: 0.6
- Binding of serum 62 to looped/cyclic peptide (PEPSCAN-ELISA) [2]: 0.4
- Binding of serum London to linear peptides of protein X1 of SARS-CoV Urbani [2]: 0.2
- Binding of serum London to looped/cyclic peptide (PEPSCAN-ELISA) [2]: 0.2
- Binding of serum SARS-green to linear peptides of protein X1 of SARS-CoV Urbani [2]: 0.1
- Binding of serum SARS-green to looped/cyclic peptide (PEPSCAN-ELISA) [2]: 0.2
- Binding of serum SARS-yellow to linear peptides of protein X1 of SARS-CoV Urbani [2]: 0.5
- Binding of serum SARS-yellow to looped/cyclic peptide (PEPSCAN-ELISA) [2]: 0.2
- Binding of Control Serum Blood-Bank to Looped peptides [3]: 0.4
- Binding of Control serum Blood-bank to linear peptides [3]: 0.7
- Binding of Control serum LUMC to linear peptides [3]: 0.6
- Binding of Control serum LUMC to looped peptides [3]: 0.4

Sequence: QEEVQQELYSPLFLI
- Rabbit serum linear peptides [1]: 0.4
- Rabbit serum looped peptides [1]: 0.4
- Binding of serum 1a to linear peptides of protein X4 of SARS-CoV Urbani [2]: 0.8
- Binding of serum 1b to linear peptides of protein X4 of SARS-CoV Urbani [2]: 0.9
- Binding of serum 2 to linear peptides of protein X4 of SARS-CoV Urbani [2]: 0.6
- Binding of serum 6 to linear peptides of protein X4 of SARS-CoV Urbani [2]: 0.6
- Binding of serum 37 to linear peptides of protein X4 of SARS-CoV Urbani [2]: 0.8
- Binding of serum 62 to linear peptides of protein X4 of SARS-CoV Urbani [2]: 0.8
- Binding of serum London to linear peptides of protein X4 of SARS-CoV Urbani [2]: 0.8
- Binding of serum SARS-green to linear peptides of protein X4 of SARS-CoV Urbani [2]: 1.0
- Binding of serum SARS-yellow to linear peptides of protein X4 of SARS-CoV Urbani [2]: 0.8
- Recognition of the peptide by sera of SARS-CoV infected individuals, and form (linear, looped/cyclic) in which it is recognized [2]: recognized in looped/cyclic form
- Binding of Control Serum Blood-Bank to Looped peptides [3]: 0.7
- Binding of Control serum Blood-bank to linear peptides [3]: 0.8
- Binding of Control serum LUMC to linear peptides [3]: 0.8
- Binding of Control serum LUMC to looped peptides [3]: 0.8

Sequence: QELLIQQWIQFMMSR
- Binding of a rabbit serum to linear peptides [1]: 0.3
- Binding of a rabbit serum to looped peptides [1]: 0.4
- Binding of serum 1a to linear peptides of protein X2 [2]: 0.7
- Binding of serum 1a to looped/cyclic peptides of protein X2 of SARS-CoV Urbani [2]: 0.5
- Binding of serum 1b to linear peptides of protein X2 [2]: 0.4
- Binding of serum 1b to looped/cyclic peptides of protein X2 of SARS-CoV Urbani [2]: 0.5
- Binding of serum 2 to linear peptides of protein X2 [2]: 0.4
- Binding of serum 2 to looped/cyclic peptides of protein X2 of SARS-CoV Urbani [2]: 0.6
- Binding of serum 6 to linear peptides of protein X2 [2]: 0.3
- Binding of serum 6 to looped/cyclic peptides of protein X2 of SARS-CoV Urbani [2]: 0.6
- Binding of serum 37 to linear peptides of protein X2 [2]: 0.5
- Binding of serum 37 to looped/cyclic peptides of protein X2 of SARS-CoV Urbani [2]: 0.5
- Binding of serum 62 to linear peptides of protein X2 [2]: 0.5
- Binding of serum 62 to looped/cyclic peptides of protein X2 of SARS-CoV Urbani [2]: 0.7
- Binding of serum London to linear peptides of protein X2 [2]: 0.4
- Binding of serum London to looped/cyclic peptides of protein X2 of SARS-CoV Urbani [2]: 1.2
- Binding of serum SARS-green to linear peptides of protein X2 [2]: 0.6
- Binding of serum SARS-green to looped/cyclic peptides of protein X2 of SARS-CoV Urbani [2]: 0.3
- Binding of serum SARS-yellow to linear peptides of protein X2 [2]: 0.6
- Binding of serum SARS-yellow to looped/cyclic peptides of protein X2 of SARS-CoV Urbani [2]: 0.5
- Binding of Control Serum Blood-Bank to Looped peptides [3]: 0.7
- Binding of Control serum Blood-bank to linear peptides [3]: 0.5
- Binding of Control serum LUMC to linear peptides [3]: 0.3
- Binding of Control serum LUMC to looped peptides [3]: 0.5

Sequence: QELYSPLFLIVAALV
- Rabbit serum linear peptides [1]: 0.4
- Rabbit serum looped peptides [1]: 0.5
- Binding of serum 1a to linear peptides of protein X4 of SARS-CoV Urbani [2]: 0.7
- Binding of serum 1a to looped/cyclic peptides of protein X4 of SARS-CoV Urbani [2]: 0.6
- Binding of serum 1b to linear peptides of protein X4 of SARS-CoV Urbani [2]: 0.5
- Binding of serum 1b to looped/cyclic peptides of protein X4 of SARS-CoV Urbani [2]: 0.4
- Binding of serum 2 to linear peptides of protein X4 of SARS-CoV Urbani [2]: 0.8
- Binding of serum 2 to looped/cyclic peptides of protein X4 of SARS-CoV Urbani [2]: 0.6
- Binding of serum 6 to linear peptides of protein X4 of SARS-CoV Urbani [2]: 0.6
- Binding of serum 6 to looped/cyclic peptides of protein X4 of SARS-CoV Urbani [2]: 0.3
- Binding of serum 37 to linear peptides of protein X4 of SARS-CoV Urbani [2]: 0.7
- Binding of serum 37 to looped/cyclic peptides of protein X4 of SARS-CoV Urbani [2]: 0.6
- Binding of serum 62 to linear peptides of protein X4 of SARS-CoV Urbani [2]: 0.7
- Binding of serum 62 to looped/cyclic peptides of protein X4 of SARS-CoV Urbani [2]: 0.6
- Binding of serum London to linear peptides of protein X4 of SARS-CoV Urbani [2]: 0.7
- Binding of serum London to looped/cyclic peptides of protein X4 of SARS-CoV Urbani [2]: 0.3
- Binding of serum SARS-green to linear peptides of protein X4 of SARS-CoV Urbani [2]: 0.5
- Binding of serum SARS-green to looped/cyclic peptides of protein X4 of SARS-CoV Urbani [2]: 0.6
- Binding of serum SARS-yellow to linear peptides of protein X4 of SARS-CoV Urbani [2]: 0.2
- Binding of serum SARS-yellow to looped/cyclic peptides of protein X4 of SARS-CoV Urbani [2]: 0.5
- Binding of Control Serum Blood-Bank to Looped peptides [3]: 0.7
- Binding of Control serum Blood-bank to linear peptides [3]: 0.6
- Binding of Control serum LUMC to linear peptides [3]: 0.6
- Binding of Control serum LUMC to looped peptides [3]: 0.7

Sequence: QFAYSNRNRFLYIIK
- Rabbit serum linear peptides [1]: 0.4
- Rabbit serum looped peptides [1]: 1.2
- Binding of serum 1a to linear peptides of protein M of SARS-CoV Urbani [2]: 0.7
- Binding of serum 1b to linear peptides of protein M of SARS-CoV Urbani [2]: 0.6
- Binding of serum 2 to linear peptides of protein M of SARS-CoV Urbani [2]: 0.5
- Binding of serum 37 to linear peptides of protein M of SARS-CoV Urbani [2]: 0.4
- Binding of serum 62 to linear peptides of protein M of SARS-CoV Urbani [2]: 0.9
- Binding of serum London to linear peptides of protein M of SARS-CoV Urbani [2]: 0.4
- Binding of serum SARS-green to linear peptides of protein M of SARS-CoV Urbani [2]: 0.5
- Binding of serum SARS-yellow to linear peptides of protein M of SARS-CoV Urbani [2]: 0.3
- Recognition of the peptide by sera of SARS-CoV infected individuals, and form (linear, looped/cyclic) in which it is recognized [2]: recognized in looped/cyclic form
- Binding of Control Serum Blood-Bank to Looped peptides of the protein M of SARS-CoV Urbani [3]: 0.6
- Binding of Control serum Blood-bank to linear peptides of the protein M of SARS-CoV Urbani [3]: 0.6
- Binding of Control serum LUMC to linear peptides of the protein M of SARS-CoV Urbani [3]: 0.8
- Binding of Control serum LUMC to looped peptides of the protein M of SARS-CoV Urbani [3]: 0.8
